The results in this text go back to patent US20210087206A1, “MACROCYCLIC KINASE INHIBITORS AND THEIR USE” (TURNING POINT THERAPEUTICS, INC., priority 2017, published 2021).

What all share (assay): Cell proliferation assay (CellTiter-Glo)
Format in all cases: cell-based

Experiment [1] has as its target T1, BaF3 EML4-ALK (Homo sapiens, UniProt Q9UM73).
T1 construct: The EML4-ALK gene (variant 1) was synthesized at GenScript and cloned into pCDH-CMV-MCS-EF1-Puro plasmid (System Biosciences, Inc); fused on or other part: EML4 N-terminal part (variant 1: exons 1-13, with the coiled-coil that oligomerises the fusion) fused to the intracellular part of ALK, which contains the kinase domain; Q9HC35 (Echinoderm microtubule-associated protein-like 4)
Conditions: anti-cell proliferation, 72 hours. How it is done:
Cloning and Ba/F3 or NIH3T3 Stable Cell Line Creation
The EML4-ALK gene (variant 1) was synthesized at GenScript and cloned into pCDH-CMV-MCS-EF1-Puro plasmid (System Biosciences, Inc). Ba/F3-EML4-ALK wild type were generated by transducing Ba/F3 cells with lentivirus containing EML4-ALK wide type. Stable cell lines were selected by puromycin treatment, followed by IL-3 withdrawal. Briefly, 5×10^6 Ba/F3 cells were transduced with lentivirus supernatant in the presence of 8 μg/mL protamine sulfate. The transduced cells were subsequently selected with 1 μg/mL puromycin in the presence of IL3-containing medium RPMI1640, plus 10% FBS. After 10-12 days of selection, the surviving cells were further selected for IL3 independent growth.
(§1) Cell Proliferation Assays:
(§2) Two thousand cells per well were seeded in 384 well white plate for 24 hrs, and then treated with compounds for 72 hours (37° C., 5% CO2). Cell proliferation was measured using CellTiter-Glo luciferase-based ATP detection assay (Promega) following the manufactures's protocol. IC50 determinations were performed using GraphPad Prism software (GraphPad, Inc., San Diego, Calif.).

For experiment [2], the system named is KM12 (TPM3-TRKA). Conditions: Homo sapiens, anti-cell proliferation, 72 hours. The method, then:
(§3) Cell Lines and Cell Culture:
(§4) Colorectal cell line KM 12 (harboring endogenous TPM3-TRKA fusion gene) was obtained from NCI. Acute myelogenous cell line KG-1 (harboring endogenous OP2-FGFR1 fusion gene) were purchased from ATCC.
as §1, §2

The subject of experiment [3] is KG-1 cell (OP2-FGFR1). Conditions: Homo sapiens, anti-cell proliferation, 72 hours. How it is done: as §3, §4, §1, §2

SMILES strings stand for the structures. pIC50: −log10 of the molar value.

T1 sequence (Q9UM73 whole entry, stated change not applied, the tested form may be a part): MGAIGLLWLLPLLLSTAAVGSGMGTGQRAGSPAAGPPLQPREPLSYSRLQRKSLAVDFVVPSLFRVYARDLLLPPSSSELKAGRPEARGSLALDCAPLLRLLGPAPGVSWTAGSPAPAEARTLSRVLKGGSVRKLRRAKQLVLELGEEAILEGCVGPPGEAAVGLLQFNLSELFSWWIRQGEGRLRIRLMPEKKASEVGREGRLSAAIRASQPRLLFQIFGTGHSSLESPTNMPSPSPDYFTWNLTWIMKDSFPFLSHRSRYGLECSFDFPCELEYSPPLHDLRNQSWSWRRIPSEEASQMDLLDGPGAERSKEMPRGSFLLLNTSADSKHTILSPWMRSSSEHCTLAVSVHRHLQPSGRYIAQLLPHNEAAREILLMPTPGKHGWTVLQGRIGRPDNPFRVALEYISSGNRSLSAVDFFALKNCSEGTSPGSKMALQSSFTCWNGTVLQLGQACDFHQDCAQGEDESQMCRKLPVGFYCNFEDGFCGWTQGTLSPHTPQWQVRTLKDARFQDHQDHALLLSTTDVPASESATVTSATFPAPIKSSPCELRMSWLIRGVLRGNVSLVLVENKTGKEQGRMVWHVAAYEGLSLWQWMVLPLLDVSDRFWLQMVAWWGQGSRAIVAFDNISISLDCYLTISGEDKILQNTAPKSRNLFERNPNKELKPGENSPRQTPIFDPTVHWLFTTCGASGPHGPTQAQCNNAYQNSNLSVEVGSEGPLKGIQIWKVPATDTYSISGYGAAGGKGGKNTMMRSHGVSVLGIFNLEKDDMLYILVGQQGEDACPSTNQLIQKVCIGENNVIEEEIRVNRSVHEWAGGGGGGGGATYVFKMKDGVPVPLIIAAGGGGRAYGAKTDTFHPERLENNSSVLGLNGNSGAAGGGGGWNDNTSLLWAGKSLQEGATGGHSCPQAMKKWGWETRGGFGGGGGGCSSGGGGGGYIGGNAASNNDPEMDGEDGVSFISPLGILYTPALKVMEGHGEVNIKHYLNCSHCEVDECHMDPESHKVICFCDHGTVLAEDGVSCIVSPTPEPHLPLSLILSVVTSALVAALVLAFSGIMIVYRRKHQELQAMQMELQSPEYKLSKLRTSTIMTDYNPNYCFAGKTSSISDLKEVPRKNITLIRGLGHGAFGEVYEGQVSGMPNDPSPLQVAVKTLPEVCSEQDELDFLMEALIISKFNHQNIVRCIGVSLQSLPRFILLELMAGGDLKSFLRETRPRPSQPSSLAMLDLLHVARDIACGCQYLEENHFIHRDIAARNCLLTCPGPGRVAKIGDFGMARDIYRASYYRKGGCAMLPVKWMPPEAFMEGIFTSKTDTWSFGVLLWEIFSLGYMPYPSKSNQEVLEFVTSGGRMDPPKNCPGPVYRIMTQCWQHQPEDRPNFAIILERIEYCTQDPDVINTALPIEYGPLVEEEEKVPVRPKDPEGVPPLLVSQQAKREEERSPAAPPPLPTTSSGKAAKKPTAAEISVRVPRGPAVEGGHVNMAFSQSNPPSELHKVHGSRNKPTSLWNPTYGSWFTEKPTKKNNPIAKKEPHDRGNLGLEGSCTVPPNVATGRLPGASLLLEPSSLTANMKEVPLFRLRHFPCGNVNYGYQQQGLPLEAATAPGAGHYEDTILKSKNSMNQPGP

Regarding `C[C@H]1CNC(=O)c2cnn3cc4c(nc23)N(CCO4)Cc2c(ccc(F)c2Cl)O1` [Compound 1, (12S)-7-chloro-8-fluoro-12-methyl-3,4,13,14-tetrahydro-6H-18,1-(metheno)[1,4]oxazino[3,4-i]pyrazolo[4,3-f][1,4,8,10]benzoxatriazacyclotridecin-15(12H)-one], the negative-log IC50 (pIC50) was 6.01 in experiment [1], 9.70 in experiment [2] and 5.87 in experiment [3].
`C[C@H]1COc2cn3ncc4c3nc2N1Cc1cc(F)ccc1OCCNC4=O` [Compound 2, (4S)-8-fluoro-4-methyl-3,4,13,14-tetrahydro-6H-18,1-(metheno)[1,4]oxazino[3,4-i]pyrazolo[4,3-f][1,4,8,10]benzoxatriazacyclotridecin-15(12H)-one]: the pIC50 was under 5.00 in experiment [1], 7.57 in experiment [2] and under 5.00 in experiment [3].
Regarding `C[C@@H]1COc2cn3ncc4c3nc2N1Cc1cc(F)ccc1OCCNC4=O` [Compound 3, (4R,12S)-8-fluoro-4,12-dimethyl-3,4,13,14-tetrahydro-6H-18,1-(metheno)[1,4]oxazino[3,4-i]-pyrazolo[4,3-f][1,4,8,10]benzo-xatriazacyclotridecin-15(12H)-one], the pIC50 is 7.03 in experiment [1], 9.70 in experiment [2] and 6.57 in experiment [3].
Taken in the same sequence, the figures for `C[C@H]1CNC(=O)c2cnn3cc4c(nc23)N(Cc2cc(F)ccc2O1)[C@@H](C)CO4` [Compound 4, (4S,12S)-8-fluoro-4,12-dimethyl-3,4,13,14-tetrahydro-6H-18,1-(metheno)[1,4]oxazino[3,4-i]pyrazolo[4,3-f][1,4,8,10]benzoxatriazacyclotridecin-15(12H)-one] were under 5.00, 9.70 and under 5.00.
With `C[C@@H]1COc2cn3ncc4c3nc2N1Cc1cc(F)ccc1O[C@@H](C)CNC4=O` [Compound 5, (4R,12S)-8-fluoro-4,12-dimethyl-3,4,13,14-tetrahydro-6H-18,1-(metheno)[1,4]oxazino[3,4-i]-pyrazolo[4,3-f][1,4,8,10]benzo-xatriazacyclotridecin-15(12H)-one], the pIC50 was 7.42 in experiment [1], 9.70 in experiment [2] and 6.71 in experiment [3].
Take `CC[C@@H]1COc2cn3ncc4c3nc2N1Cc1cc(F)ccc1O[C@@H](C)CNC4=O` [Compound 6, (4R,12S)-4-ethyl-8-fluoro-12-methyl-3,4,13,14-tetrahydro-6H-18,1-(metheno)[1,4]oxazino[3,4-i]pyrazolo[4,3-f][1,4,8,10]benzo-xatriazacyclotridecin-15(12H)-one]: the pIC50 is 7.69 in experiment [1], 9.70 in experiment [2] and 6.63 in experiment [3].
Regarding `C[C@@H]1COc2cn3ncc4c3nc2N1Cc1cc(F)cnc1O[C@@H](C)CNC4=O` [Compound 8, (4R,12S)-8-fluoro-4,12-dimethyl-3,4,13,14-tetrahydro-6H-18,1-(metheno)[1,4]oxazino[3,4-i]pyrazolo[4,3-f]pyrido[3,2-l][1,4,8,10]oxatriazacyclotridecin-15(12H)-one], the results for the negative logarithm of the IC50 (pIC50) in experiment [1], in experiment [2] and in experiment [3] were 6.99, 9.70 and 7.11, respectively.
Take `CC[C@@H]1COc2ncc(F)cc2CN2c3nc4c(cnn4cc3OC[C@H]2C)C(=O)N1` [Compound 24, (4R,13R)-13-ethyl-8-fluoro-4-methyl-3,4,13,14-tetrahydro-6H-18,1-(metheno)[1,4]oxazino[3,4-i]pyrazolo[4,3-f]pyrido[3,2-l] [1,4,8,10]oxatriazacyclotridecin-15(12H)-one]: the figures for the pIC50 in experiment [1] and in experiment [3] were 6.98 and 7.30, respectively.
For `C[C@H]1CNC(=O)c2cnn3cc4c(nc23)N(Cc2cc(F)cnc2O1)C(C)(C)CO4` [Compound 37, (12S)-8-fluoro-4,4,12-trimethyl-3,4,13,14-tetrahydro-6H-18,1-(metheno)[1,4]oxazino[3,4-i]-pyrazolo[4,3-f]pyrido[3,2-l] [1,4,8,10]oxatriazacyclotridecin-15(12H)-one], the pIC50 in experiment [1] was 5.81; in experiment [3] it was 5.30.
Consider `C[C@H]1CNC(=O)c2cnn3cc4c(nc23)N(Cc2cc(F)cnc2O1)[C@H](Cc1ccccc1)CO4` [Compound 38, (4R,12S)-4-benzyl-8-fluoro-12-methyl-3,4,13,14-tetrahydro-6H-18,1-(metheno)[1,4]oxazino[3,4-i]pyrazolo[4,3-f]pyrido[3,2-l] [1,4,8,10]oxatriazacyclotridecin-15(12H)-one], for which the values for the pIC50 in experiment [1] and in experiment [3] were 5.14 and 6.45, respectively.
The like results for `C[C@@H]1COc2ncc(F)cc2CN2c3nc4c(cnn4cc3OC[C@H]2Cc2ccccc2)C(=O)N1` [Compound 39, (4R,13R)-4-benzyl-8-fluoro-13-methyl-3,4,13,14-tetrahydro-6H-18,1-(metheno)[1,4]oxazino[3,4-i]pyrazolo[4,3-f]pyrido[3,2-l] [1,4,8,10]oxatriazacyclotridecin-15(12H)-one] were, in that order, 5.79 and 7.13.
Turning to `C[C@H]1CNC(=O)c2cnn3cc4c(nc23)N(Cc2cc(F)cnc2O1)C[C@H](O)CO4` [Compound 62, (4S,13S)-9-fluoro-4-hydroxy-13-methyl-4,5,14,15-tetrahydro-3H,7H-19,1-(metheno)[1,4]-oxazepino[3,4-i]pyrazolo[4,3-f]-pyrido[3,2-l][1,4,8,10]oxatria-cyclotridecin-16(13H)-one], the pIC50 is 7.02 in experiment [2] and 6.17 in experiment [3].
Consider `C[C@@H]1COc2ncc(F)cc2CN2c3nc4c(cnn4cc3OC[C@H]2C#N)C(=O)N1` [Compound 66, (4R,13R)-8-fluoro-13-methyl-15-oxo-3,4,12,13,14,15-hexahydro-6H-18,1-(metheno)[1,4]oxazino[3,4-i]pyrazolo[4,3-f]pyrido[3,2-1][1,4,8,10]oxatriazacyclotridecine-4-carbonitrile], for which the pIC50 was 6.33 in experiment [2] and 5.00 in experiment [3].
Take `C[C@@H]1COc2cn3ncc4c3nc2N1Cc1cc(F)cnc1OCC(O)(O)CNC4=O` [Compound 81, (16R)-12-fluoro-7,7-dihydroxy-16-methyl-5,6,7,8,16,17-hexahydro-4H,14H-1,19-(metheno)[1,4]oxazino[4,3-e]pyrazolo[3,4-h]pyrido[2,3-b][1,5,7,11]oxatriazacyclotetradecin-4-one]: the pIC50 in experiment [2] is over 9.70; in experiment [3], 6.78.
On to `C[C@H]1CNC(=O)c2cnn3cc4c(nc23)N(Cc2cc(F)cnc2O1)C[C@@H](O)CO4` [Compound 90, (4R,13S)-9-fluoro-4-hydroxy-13-methyl-4,5,14,15-tetrahydro-3H,7H-19,1-(metheno)[1,4]-oxazepino[3,4-i]pyrazolo[4,3-f]pyrido[3,2-l][1,4,8,10]oxatriaza-cyclotridecin-16(13H)-one], for which the pIC50 in experiment [2] is over 9.70; in experiment [3], 6.44.
Take `C[C@@H]1COc2ncc(F)cc2CN2C[C@@H](F)COc3cn4ncc(c4nc32)C(=O)N1` [Compound 94, (4R,14R)-4,9-difluoro-14-methyl-4,5,14,15-tetrahydro-3H,7H-19,1-(metheno)[1,4]oxazepino[3,4-i]pyrazolo[4,3-f]pyrido[3,2-l] [1,4,8,10]oxatriazacyclotridecin-16(13H)-one]: the pIC50 was 7.39 in experiment [2] and 5.21 in experiment [3].

Broadly, the pIC50 is the IC50 on a negative log10 scale, so that one unit is a factor of ten. A high value points to a low IC50.
